Reference: patent US8937084B2, “Nitrogen containing morphinan derivatives and the use thereof” (Purdue Pharma L.P., priority 2012, dated 2015)

Key:
δ opioid receptor = δ opioid receptor (Homo sapiens (Human), UniProt P41143); assay: δ-opioid receptor radioligand dose-displacement binding assay ([3H]-Naltrindole)
Protocol: δ-Oploid Receptor Binding Assay Procedures: δ-Opioid Receptor Binding Assay Procedures were conducted as follows. Radioligand dose-displacement assays used 0.3 nM [^3H]-Naltrindole (Perkin Elmer, Shelton, Conn.; 33.0 Ci/mmole) with 5 μg membrane protein (Perkin Elmer, Shelton, Conn.) in a final volume of 500 μl binding buffer (5 mM MgCl2, 5% DMSO, 50 mM Trizma base, pH 7.4). Non-specific binding was determined in the presence of 25 μM unlabeled naloxone. All reactions were performed in 96-deep well polypropylene plates for 1 hour at a temperature of about 25° C. Binding reactions were terminated by rapid filtration onto 96-well Unifilter GF/C filter plates (Perkin Elmer, Shelton, Conn.) presoaked in 0.5% polyethylenimine (Sigma). Harvesting was performed using a 96-well tissue harvester (Perkin Elmer, Shelton, Conn.) followed by five filtration washes with 500 μl ice-cold binding buffer. Filter plates were subsequently dried at 50° C. for 1-2 hours. Fifty μl/well scintillation cocktail (Perkin Elmer, Shelton, Conn.) was added and plates were counted in a Packard Top-Count for 1 min/well.
(§1) In TABLE 1, binding affinity of certain Compounds of the Invention to the μ-, δ- and κ-opioid receptors was determined as described above.

κ opioid receptor [1] = molecular target: T1, κ opioid receptor (Homo sapiens (Human), UniProt P41145); assay: κ-opioid receptor [35S]GTPγS functional assay, U-2 OS cells; format: biochemical; conditions: for EC50: GTPγS; for Emax: relative to U69,593
Protocol: (§2) κ-Opioid Receptor Functional Assay Procedures: Functional [^35S]GTPγS binding assays were conducted as follows. κ opioid receptor membrane solution was prepared by sequentially adding final concentrations of 0.026 μg/μl κ membrane protein (in-house), 10 μg/mL saponin, 3 μM GDP and 0.20 nM [^35S]GTPγS to binding buffer (100 mM NaCl, 10 mM MgCl2, 20 mM HEPES, pH 7.4) on ice. The prepared membrane solution (190 μl/well) was transferred to 96-shallow well polypropylene plates containing 10 μl of 20× concentrated stock solutions of agonist prepared in DMSO. Plates were incubated for 30 min at a temperature of about 25° C. with shaking. Reactions were terminated by rapid filtration onto 96-well Unifilter GF/B filter plates (Perkin Elmer, Shelton, Conn.) using a 96-well tissue harvester (Packard) and followed by three filtration washes with 200 μl ice-cold binding buffer (10 mM NaH2PO4, 10 mM Na2HPO4, pH 7.4). Filter plates were subsequently dried at 50° C. for 2-3 hours. Fifty μl/well scintillation cocktail (Perkin Elmer, Shelton, Conn.) was added and plates were counted in a Packard Top-Count for 1 min/well.
(§3) κ-Oploid Receptor Functional Data: κ GTP EC50 is the concentration of a compound providing 50% of the maximal response for the compound at a K receptor.
(§4) κ GTP Emax (%) is the maximal effect elicited by a compound relative to the effect elicited by U69,593.
(§5) The following TABLE 3 provides results on the activity response of certain Compounds of the Invention at the μ- and κ-opioid receptors determined as described above using U-2 OS cells.

μ-opioid receptor [2] = molecular target: T2, μ-opioid receptor (Homo sapiens (Human), UniProt P35372); assay: μ-opioid receptor [35S]GTPγS functional assay, U-2 OS cells; format: biochemical; conditions: for EC50: GTPγS; for Emax: relative to DAMGO
Protocol: μ-Opioid Receptor Functional Assay Procedures: [^35S]GTPγS functional assays were conducted using freshly thawed μ-receptor membranes prepared in-house from a cell line expressing recombinant μ opioid receptor in a HEK-293, CHO or U-2 OS cell background, or purchased from a commercial source (Perkin Elmer, Shelton, Conn.; or DiscovRx, Fremont, Calif.). Assay reactions were prepared by sequentially adding the following reagents to binding buffer (100 mM NaCl, 10 mM MgCl2, 20 mM HEPES, pH 7.4) on ice (final concentrations indicated): membrane protein (0.026 mg/mL), saponin ([…]), GDP ([…]) and [^35S]GTPγS (0.20 nM; Perkin Elmer, Shelton, Conn.). The prepared membrane solution (190 μl/well) was transferred to 96-shallow well polypropylene plates containing 10 μl of 20× concentrated stock solutions of the agonist [D-Ala^2, N-methyl-Phe^4 Gly-ol^5]-enkephalin (DAMGO) prepared in dimethyl sulfoxide (DMSO). Plates were incubated for 30 min at about 25° C. with shaking. Reactions were terminated by rapid filtration onto 96-well Unifilter GF/B filter plates (Perkin Elmer, Shelton, Conn.) using a 96-well tissue harvester (Perkin Elmer, Shelton, Conn.) followed by three filtration washes with 200 μl of ice-cold wash buffer (10 mM NaH2PO4, 10 mM Na2HPO4, pH 7.4). Filter plates were subsequently dried at 50° C. for 2-3 hours. BetaScint scintillation cocktail (Perkin Elmer, Shelton, Conn.) was added (50 μl/well) and plates were counted using a Packard Top-Count for 1 min/well. Data were analyzed using the sigmoidal dose-response curve fitting functions in GraphPad PRISM v. 3.0, or an in-house function for non-linear, sigmoidal dose-response curve-fitting.
μ-Opioid Receptor Functional Data: μ GTP EC50 is the concentration of a compound providing 50% of the maximal response for the compound at a μ-opioid receptor.
μ GTP Emax (%) is the maximal effect elicited by a compound relative to the effect elicited by DAMGO, a standard μ agonist. Generally, the μ GTP Emax (%) value measures the efficacy of a compound to treat or prevent pain or other Conditions.
as §5

κ opioid receptor [3] = molecular target: T1, κ opioid receptor; assay: κ-opioid receptor [35S]GTPγS functional assay, HEK-293 or CHO cells; format: biochemical; conditions: for EC50: GTPγS; for Emax: relative to U69,593
Protocol: as §2, §3, §4
In TABLE 2, activity response of certain Compounds of the Invention to the μ-, δ- and κ-opioid receptors was determined as described above for functional assays using HEK-293 or CHO cells.

μ-opioid receptor [4] = molecular target: T2, μ-opioid receptor; assay: μ-opioid receptor radioligand dose-displacement binding assay ([3H]-diprenorphine)
Protocol: μ-Opioid Receptor Binding Assay Procedures: Radioligand dose-displacement binding assays for μ-opioid receptors used 0.3 nM [^3H]-diprenorphine (Perkin Elmer, Shelton, Conn.), with […] membrane protein/well in a final volume of 500 μl binding buffer (10 mM MgCl2, 1 mM EDTA, 5% DMSO, 50 mM HEPES, pH 7.4). Reactions were carried out in the absence or presence of increasing concentrations of unlabeled naloxone. All reactions were conducted in 96-deep well polypropylene plates for 2 hours at room temperature. Binding reactions were terminated by rapid filtration onto 96-well Unifilter GF/C filter plates (Perkin Elmer, Shelton, Conn.), presoaked in 0.5% polyethylenimine using a 96-well tissue harvester (Perkin Elmer, Shelton, Conn.) followed by performing three filtration washes with 500 μl of ice-cold binding buffer. Filter plates were subsequently dried at 50° C. for 2-3 hours. BetaScint scintillation cocktail (Perkin Elmer, Shelton, Conn.) was added (50 μl/well), and plates were counted using a Packard Top-Count for 1 min/well. The data were analyzed using the one-site competition curve fitting functions in GraphPad PRISM™ v. 3.0 or higher (San Diego, Calif.), or an in-house function for one-site competition curve-fitting.
as §1

Chain of δ opioid receptor (P41143 whole entry, looked up): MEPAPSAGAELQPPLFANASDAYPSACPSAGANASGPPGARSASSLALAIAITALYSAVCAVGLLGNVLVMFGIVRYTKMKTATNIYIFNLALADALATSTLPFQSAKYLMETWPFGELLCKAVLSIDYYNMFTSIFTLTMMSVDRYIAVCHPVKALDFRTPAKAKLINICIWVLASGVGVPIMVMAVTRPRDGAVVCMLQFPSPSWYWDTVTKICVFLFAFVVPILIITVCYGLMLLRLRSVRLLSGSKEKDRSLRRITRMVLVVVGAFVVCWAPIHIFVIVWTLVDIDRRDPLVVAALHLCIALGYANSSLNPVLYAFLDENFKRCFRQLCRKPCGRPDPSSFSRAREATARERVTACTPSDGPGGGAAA

## NC(=O)CN1C[C@H]2[C@H]3Cc4ccc(O)cc4[C@@]2(CCN3CC2CC2)CC1=O [Compound 4, 2-((4aS,5R,10bS)— 13-(cyclopropylmethyl)-9-hydroxy-2-oxo-4,4-a,5,6-tetrahydro-1H-5,10b-(epiminoethano)benzo[f]isoquinolin-3(2H)-yl)acetamide]
δ opioid receptor
  Ki: 49 ± 17.7 nM
κ opioid receptor [1]
  EC50: 1.65 ± 0.054 nM
  Emax: 104 ± 2.6%
μ-opioid receptor [2]
  EC50: 7.05 ± 0.17 nM
  Emax: 39 ± 3.51%
κ opioid receptor [3]
  EC50: 80.8 ± 5.95 nM
  Emax: 62%
μ-opioid receptor [4]
  Ki: 24.4 ± 7.61 nM

## O=C1C[C@]23CCN(CC4CC4)[C@H](Cc4ccc(O)cc42)[C@@H]3CN1Cc1ccc(O)cc1 [Compound 5, (4aS,5R,10bS)-13-(cyclopropylmethyl)-9-hydroxy-3-(4-hydroxybenzyl)-4,4-a,5,6-tetrahydro-1H-5,10b-(epiminoethano)benzo[f]isoquinolin-2(3H)-one]
δ opioid receptor
  Ki: 22.9 ± 8.53 nM
κ opioid receptor [3]
  EC50: 102 ± 19.9 nM
  Emax: 42%
μ-opioid receptor [4]
  Ki: 12.8 ± 1.55 nM

## O=C1C[C@]23CCN(CC4CC4)[C@H](Cc4ccc(O)cc42)[C@@H]3CN1 [Compound 7, (4aS,5R,10bS)-13-(cyclopropylmethyl)-9-hydroxy-4,4-a,5,6-tetrahydro-1H-5,10b-(epiminoethano)benzo[f]isoquinolin-2(3H)-one]
δ opioid receptor
  Ki: 15 ± 3.45 nM
κ opioid receptor [1]
  EC50: 0.21 ± 0.014 nM
  Emax: 106 ± 1.53%
μ-opioid receptor [2]
  EC50: 3.43 ± 0.43 nM
  Emax: 40.7 ± 3.18%
κ opioid receptor [3]
  EC50: 5.1 ± 1.62 nM
  Emax: 74.7%
μ-opioid receptor [4]
  Ki: 5.61 ± 0.44 nM

## O=C(O)CN1C[C@H]2[C@H]3Cc4ccc(O)cc4[C@@]2(CCN3CC2CC2)CC1=O [Compound 8, 2-((4aS,5R,10bS)-13-(cyclopropylmethyl)-9-hydroxy-2-oxo-4,4-a,5,6-tetrahydro-1H-5,10b-(epiminoethano)benzo[f]isoquinolin-3(2H)-yl)acetic acid]
δ opioid receptor
  Ki: 82.2 ± 30.1 nM
κ opioid receptor [3]
  EC50: 14.9 ± 2.71 nM
  Emax: 66%
μ-opioid receptor [4]
  Ki: 21.2 ± 6.62 nM

## Oc1ccc2c(c1)[C@@]13CCNC[C@H]1[C@@H](C2)N(CC1CC1)CC3 [Compound 13, (4aS,5R,10bR)-13-(cyclopropylmethyl)-2,3,4,4a,5,6-hexahydro-1H-5,10b-(epiminoethano)benzo[f]isoquinolin-9-ol]
δ opioid receptor
  Ki: 174 ± 33.7 nM
κ opioid receptor [3]
  EC50: 29.5 ± 14.8 nM
  Emax: 78.3%
μ-opioid receptor [4]
  Ki: 50.4 ± 16.7 nM
